The test system of data set [1] is lentiviral vectors pseudotyped with the SARS-CoV-2 Spike protein (CoV-2 LV). Briefly: microbe, parasite or virus in culture. The class given is cell-based. The following applies: Severe acute respiratory syndrome coronavirus 2; 293-ACE2 cells (Table 1).
Data set [2] deals with VSVg pseudotyped LV. The class given is cell-based.
The target in data set [3] is SARS-CoV-2 S-RBD(His)6 and human ACE2-Biot interaction (Severe acute respiratory syndrome coronavirus 2, UniProt P0DTC2). The data set is described as follows: AlphaLISA competition assay of the S-RBD/ACE2 interaction. The class given is binding, SARS-CoV-2 / human. The following applies: at 25 µM of drug; 3 nM of each protein. In general terms: Alpha assays give light when donor and acceptor beads are brought close together.

The test system of data set [4] is SARS-CoV-2 reference strain. Briefly: microbe, parasite or virus in culture. The class given is cell-based.
Data set [5] has as its system SARS-CoV-2 reference strain. The data set is described as follows: microbe, parasite or virus in culture. The class given is cell-based. The conditions noted are these: Severe acute respiratory syndrome coronavirus 2, Calu-3.
Data set [6] concerns SARS-CoV-2. The data set is described as follows: Antiviral activity summarised over all the cell lines. The class given is cell-based.
For data set [7], the system named is HEK293T-ACE2. The conditions noted are these: HEK-293T cell line, within the 0-50µM range.
The test system of data set [8] is A549-ACE2. The conditions noted are these: A549 cell line, within the 0-50µM range.
Data set [9] concerns Calu3. The conditions noted are these: Calu3 cell line, within the 0-50µM range.
Data set [10] concerns Caco2. The following applies: Caco2 cell line, within the 0-50µM range.
A short description of data set [11]: in vitro. The following applies: human.
Data set [12] in a line: in vitro. The following applies: human. This is another data set of the same source.
Data set [13] is described as follows: in vitro. The following applies: human. This is another data set of the same source.

Like-named read-outs stand apart in the source and are kept apart here.

Experimental findings from patent publication EP4173621A1 (priority 2021, dated 2023) are described below.

`C(=C\c1nc2ccccc2s1)/c1cccc(N(c2cccc(/C=C/c3nc4ccccc4s3)c2)c2cccc(/C=C/c3nc4ccccc4s3)c2)c1` [TP m 3BTZ compound, Tris {3-(2-(benzothiazole-2-yl)vinylphenyl}amine)]: the IC50 was 1 µM in data set [1]; 2.5 µM in [4] (Severe acute respiratory syndrome coronavirus 2, A549-ACE2, A 549-ACE2 cells (Table 1)); 5 µM in [5] (Calu3 cells (Table 1), read-out: IC50); around 1 µM in data set [5] (Calu3 cells, SARS-CoV-2 reference strain, 24 hours, read-out: concentration leading to 50% inhibition of the viral replication); 0.25 to 5 µM in data set [6] (Severe acute respiratory syndrome coronavirus 2, among all the cell lines). Further, the “effect on the VSVg LVs infectivity” value in data set [2] was “without significant effect”. The “inhibition of the formation of the RBD/ACE2 complex (AlphaLISA)” value in [3] was determined as 50%. The “inhibition of the viral replication” value in data set [4] (A549-ACE2 cells, SARS-CoV-2 reference strain, 24 hours) is reported as “induced an inhibition of the viral replication”. Also, the selectivity indexes in data set [6] (among all the cell lines) is reported as above 10. Also, the “selectivity index (SI)” value in data set [6] (based on apparent IC50 and CC50 in the different cell lines) is on record as “higher than 50”. In addition, the “cytotoxicity (MTT assay)” value in [7], in data set [8], in data set [9] and in data set [10] was “no or poor cytoxoxicity” each time. In addition, the CC50 in data set [11], in data set [12] and in data set [13] was above 50 µM in each case.
